Test results taken from US20220175693A1, “DIETARY SUPPLEMENT COMPRISING LUTEIN FOR TELOMERE PROTECTION, AND METHOD FOR PRODUCTION THEREOF” (BIOGEN EXTRACTS PRIVATE LIMITED, priority 2019, published 2022).

Test system: human adult primary fibroblast cells
Assay: Proliferative analysis (population doubling, cell counts per passage) under standard and oxidative stress conditions
Format: cell-based
Protocol: Analysis of cellular proliferation rate and telomere length in cultures of human adult primary fibroblast cells treated with lutein under standard and oxidative stress conditions. Primary cultures of adult human fibroblast were established. Cells are seeded at 2×10^3 cells/cm2 in GlutaMax™ high glucose Dulbecco's modified Eagle's medium (DMEM, Gibco®), and supplemented with 10% fetal bovine serum (FBS, HyClone, Thermo Scientific), penicillin (100 U/ml) and reptomycin (1000 U/ml). Media is renewed every 2-3 days and cells passaged at sub-confluence (70-80%) every 4-5 days. Compounds or vehicle control are added to the cells in culture. Cell growth is monitored for each condition by counting cell numbers at each passage using a Countess™ cell counter (Invitrogen). Population doubling (PD) was calculated with the formula PD=(log (Nn/Nn-1))/log 2 where n is the passage; and N the number of cells. One PD is equivalent to one round of cell replication. Eight independent condition were evaluated by proliferative Analysis: Standard cell culture condition+Lutein−10 μg/ml (LUT10) Standard cell culture condition+Lutein−5 μg/ml (LUT5) Standard cell culture condition+Lutein−1 μg/ml (LUT1) Standard cell culture condition+Lutein−10 μg/ml+10 μM H2O2 (LUT10+H2O2) Standard cell culture condition+Lutein−5 μg/ml+10 μM H2O2(LUT5+H2O2) Standard cell culture condition+Lutein−1 μg/ml+10 μM H2O2 (LUT1+H2O2) Cells were expanded during eight weeks under standard and oxidative (10 μM H2O2) cell culture condition as described previously. Fresh treatments were prepared and added to the cells at every passage and also when media was renewed. Stock solution of 10 mg/ml of the compound was prepared in DMSO and the different treatments were prepared from that stock.

[1] = Lutein 5 μg/ml, standard culture, week 1 (P1)
[2] = Lutein 5 μg/ml, standard culture, week 2 (P2)
[3] = Lutein 5 μg/ml, standard culture, week 3 (P3)
[4] = Lutein 5 μg/ml, standard culture, week 4 (P4)
[5] = Lutein 5 μg/ml, standard culture, week 5 (P5)
[6] = Lutein 5 μg/ml, standard culture, week 6 (P6)
[7] = Lutein 5 μg/ml, standard culture, week 7 (P7)
[8] = Lutein 5 μg/ml, standard culture, week 8 (P8)
[9] = Lutein 10 μg/ml + 10 μM H2O2, week 1 (P1)
[10] = Lutein 10 μg/ml + 10 μM H2O2, week 2 (P2)
[11] = Lutein 10 μg/ml + 10 μM H2O2, week 3 (P3)
[12] = Lutein 10 μg/ml + 10 μM H2O2, week 4 (P4)
[13] = Lutein 10 μg/ml + 10 μM H2O2, week 5 (P5)
[14] = Lutein 10 μg/ml + 10 μM H2O2, week 6 (P6)
[15] = Lutein 10 μg/ml + 10 μM H2O2, week 7 (P7)
[16] = Lutein 10 μg/ml + 10 μM H2O2, week 8 (P8)
[17] = Lutein 10 μg/ml, standard culture, week 1 (P1)
[18] = Lutein 10 μg/ml, standard culture, week 2 (P2)
[19] = Lutein 10 μg/ml, standard culture, week 3 (P3)
[20] = Lutein 10 μg/ml, standard culture, week 4 (P4)
[21] = Lutein 10 μg/ml, standard culture, week 5 (P5)
[22] = Lutein 10 μg/ml, standard culture, week 6 (P6)
[23] = Lutein 10 μg/ml, standard culture, week 7 (P7)
[24] = Lutein 10 μg/ml, standard culture, week 8 (P8)

CC1=C[C@H](O)CC(C)(C)[C@H]1/C=C/C(C)=C/C=C/C(C)=C/C=C/C=C(C)/C=C/C=C(C)/C=C/C1=C(C)C[C@@H](O)CC1(C)C [Lutein]
Population Doubling per passage [1]: 3.81 | Total number of cells per passage [1]: 2.10E+06 | Cumulative Population Doubling per passage [2]: 6.47 | Population Doubling per passage [2]: 2.65 | Total number of cells per passage [2]: 1.33E+07 | Cumulative Population Doubling per passage [3]: 9.12 | Population Doubling per passage [3]: 2.65 | Total number of cells per passage [3]: 8.33E+07 | Cumulative Population Doubling (Table 7A) (Lutein 5 μg/ml, standard culture, week 4): 12.5 | Cumulative Population Doubling per passage [4]: 12.53 | Population Doubling per passage [4]: 3.42 | Total number of cells per passage [4]: 8.89E+09 | Cumulative Population Doubling per passage [5]: 15.02 | Population Doubling per passage [5]: 2.49 | Total number of cells per passage [5]: 4.98E+09 | Cumulative Population Doubling per passage [6]: 16.47 | Population Doubling per passage [6]: 1.45 | Total number of cells per passage [6]: 1.36E+10 | Cumulative Population Doubling per passage [7]: 18.15 | Population Doubling per passage [7]: 1.68 | Total number of cells per passage [7]: 4.35E+10 | Cumulative Population Doubling (Table 7A) (Lutein 5 μg/ml, standard culture, week 8): 21.3 | Cumulative Population Doubling per passage [8]: 21.26 | Population Doubling per passage [8]: 3.12 | Total number of cells per passage [8]: 3.77E+11 | Cumulative Population Doubling per passage [9]: 3.50 | Population Doubling per passage [9]: 3.50 | Total number of cells per passage [9]: 1.70E+06 | Cumulative Population Doubling per passage [10]: 6.92 | Population Doubling per passage [10]: 3.42 | Total number of cells per passage [10]: 1.81E+07 | Cumulative Population Doubling per passage [11]: 9.65 | Population Doubling per passage [11]: 2.74 | Total number of cells per passage [11]: 1.21E+08 | Cumulative Population Doubling (Table 7A) (Lutein 10 μg/ml + 10 μM H2O2, week 4): 13.1 | Cumulative Population Doubling per passage [12]: 13.07 | Population Doubling per passage [12]: 3.42 | Total number of cells per passage [12]: 1.29E+09 | Cumulative Population Doubling per passage [13]: 14.97 | Population Doubling per passage [13]: 1.90 | Total number of cells per passage [13]: 4.81E+09 | Cumulative Population Doubling per passage [14]: 16.97 | Population Doubling per passage [14]: 2.00 | Total number of cells per passage [14]: 1.93E+09 | Cumulative Population Doubling per passage [15]: 18.52 | Population Doubling per passage [15]: 1.55 | Total number of cells per passage [15]: 5.65E+10 | Cumulative Population Doubling (Table 7A) (Lutein 10 μg/ml + 10 μM H2O2, week 8): 20.8 | Cumulative Population Doubling per passage [16]: 20.83 | Population Doubling per passage [16]: 2.30 | Total number of cells per passage [16]: 2.79E+11 | Cumulative Population Doubling per passage [17]: 3.58 | Population Doubling per passage [17]: 3.58 | Total number of cells per passage [17]: 1.80E+06 | Cumulative Population Doubling per passage [18]: 6.70 | Population Doubling per passage [18]: 3.12 | Total number of cells per passage [18]: 1.56E+07 | Cumulative Population Doubling per passage [19]: 9.82 | Population Doubling per passage [19]: 3.12 | Total number of cells per passage [19]: 1.35E+08 | Cumulative Population Doubling (Table 7A) (Lutein 10 μg/ml, standard culture, week 4): 13.3 | Cumulative Population Doubling per passage [20]: 13.32 | Population Doubling per passage [20]: 3.50 | Total number of cells per passage [20]: 1.53E+09 | Cumulative Population Doubling per passage [21]: 15.75 | Population Doubling per passage [21]: 2.43 | Total number of cells per passage [21]: 8.27E+09 | Cumulative Population Doubling per passage [22]: 18.49 | Population Doubling per passage [22]: 2.74 | Total number of cells per passage [22]: 5.52E+10 | Cumulative Population Doubling per passage [23]: 21.18 | Population Doubling per passage [23]: 2.69 | Total number of cells per passage [23]: 3.57E+11 | Cumulative Population Doubling (Table 7A) (Lutein 10 μg/ml, standard culture, week 8): 23.9 | Cumulative Population Doubling per passage [24]: 23.92 | Population Doubling per passage [24]: 2.74 | Total number of cells per passage [24]: 2.38E+12 | Proliferation rate compared to control group (H2O2) (Lutein 10, 5 and 1 μg/ml + 10 μM H2O2 (oxidative culture conditions), after eight weeks): increase in proliferation rate | Proliferation rate compared to control (Ctrl) (Lutein 10, 5 and 1 μg/ml, standard culture conditions, after eight weeks): no difference
